Results: patent US20230158151A1 (NURIX THERAPEUTICS, INC., priority 2021, published 2023)

Target: T1, ITK (Homo sapiens, UniProt Q08881)
T1 construct: Compounds provided herein were assayed in vitro with ITK HiBit cell lines; endogenous in cells; host or cells: Molt4 (ATCC CRL-1552 [sic]), monoclonal clone 1C10
T1 sequence (Q08881 1-620): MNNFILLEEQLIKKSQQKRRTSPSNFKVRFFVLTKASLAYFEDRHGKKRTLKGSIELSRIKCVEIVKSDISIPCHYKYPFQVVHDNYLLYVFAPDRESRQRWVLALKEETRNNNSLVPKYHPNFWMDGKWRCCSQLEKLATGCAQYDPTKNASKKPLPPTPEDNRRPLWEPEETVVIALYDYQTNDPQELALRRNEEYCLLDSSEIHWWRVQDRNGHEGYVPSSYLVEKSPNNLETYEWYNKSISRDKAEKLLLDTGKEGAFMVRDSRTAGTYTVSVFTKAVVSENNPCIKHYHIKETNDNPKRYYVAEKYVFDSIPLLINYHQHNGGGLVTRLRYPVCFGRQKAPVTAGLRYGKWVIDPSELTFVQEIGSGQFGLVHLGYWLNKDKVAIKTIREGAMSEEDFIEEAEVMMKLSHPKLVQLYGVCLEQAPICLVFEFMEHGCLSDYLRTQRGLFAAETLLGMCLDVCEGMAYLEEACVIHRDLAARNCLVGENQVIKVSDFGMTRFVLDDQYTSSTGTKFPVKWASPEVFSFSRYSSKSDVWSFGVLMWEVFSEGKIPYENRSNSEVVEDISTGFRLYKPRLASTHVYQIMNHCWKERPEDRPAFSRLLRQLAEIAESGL
Assay: ITK Degradation HiBiT Assay
Assay type: cell-based
Settings: C-terminal HiBiT-tagged Molt4 cells, 4 hrs incubation; for Dmax: MOLT-4, read-out: HiBiT DMax (%)
Method: Compounds provided herein were assayed in vitro with ITK HiBit cell lines. Compound dilution series (11-point, 5 fold dilutions in DMSO, columns 2-12 with replicate in rows A/B, C/D, E/F, G, H at 2000× the final required concentrations were prepared in 96 well plate (Falcon, cat. no. 353077). Column 1, rows A-H were control DMSO. The 2000× solutions ranged from 2 mM to 1.024 nM (final assay concentration range 1 μM to […]). The 2000× solutions were added to cells in […], for a final DMSO concentration of 0.5% and final assay compound concentration of 1×. For the cells, C-terminal HiBiT-tagged Molt4 cells (ATCC CRL-1552, monoclonal cell line clone 1C10) were plated at 1×10^6 cells/mL, 100 μL/well ([…]) in complete RPMI (10% FBS, 1% L-glutamine). The cells were incubated with compound 32 and compound 30 for 4 hrs at 32° C./6% CO2.
Following incubation, 100 μL of complete Nano-Glo HiBiT Lytic Detection Reagent (Nano-Glo HiBiT Lytic Buffer with 1:50 Nano-Glo HiBiT Lytic Substrate and 1:100 LgBiT Protein; Promega cat. no. N3O40) was added. Cells were further incubated for 10 min at room temperature (RT). Luminescence units (LU) were read on an EnVision plate reader (Perkin Elmer, 0.1 sec per well). Percent ITK remaining per sample was calculated as follows: […]
Using Graphpad Prism, % ITK remaining values were plotted as a function of compound concentration. To determine DC50 and Dmax values, resulting curves were fit to the Prism curve-fitting equation “log(inhibitor) vs response−Variable slope (four parameters)” (reported best fit value IC50 used as DC50). ITK was measured with antibody-based MSD (Meso-Scale Discovery) assays shown below.

**Q.** `C[C@@]12Cc3[nH]nc(C(=O)Nc4cnn(C5CN(C(=O)C6CN(c7ccc(C8CCC(=O)NC8=O)cn7)C6)C5)c4)c3C[C@@H]1C2(F)F` (stereo partly drawn) [Compound 14, (4aS,5aR)—N-(1-(1-(1-(5-(2,6-dioxopiperidin-3-yl)pyridin-2-yl)azetidine-3-carbonyl)azetidin-3-yl)-1H-pyrazol-4-yl)-5,5-difluoro-5a-methyl-1,4,4a,5,5a,6-hexahydrocyclopropa[f]indazole-3-carboxamide] was tested. Which Dmax did it give?
**A.** 78%

**Q.** For `CC1(C)CCc2c(-c3cc4ccc(C(=O)N5CCC(CN6CCN(c7cccc(C8CCC(=O)NC8=O)n7)CC6)CC5)cc4[nH]3)n[nH]c2C1` (stereo not drawn) [Compound 41], which Dmax is on record?
**A.** 27%

**Q.** Which results are given for `C[C@@]12Cc3[nH]nc(-c4cc5ccc(N6CCC7(CCN(CCC8CCN(c9ccc(C%10CCC(=O)NC%10=O)cn9)CC8)CC7)C6=O)cc5[nH]4)c3C[C@@H]1C2(F)F` (stereo partly drawn) [Compound 17, 3-(6-(4-(2-(2-(2-((4aS,5aR)-5,5-difluoro-5a-methyl-1,4,4a,5,5a,6-hexahydrocyclopropa[f]indazol-3-yl)-1H-indol-6-yl)-1-oxo-2,8-diazaspiro[4.5]decan-8-yl)ethyl)piperidin-1-yl)pyridin-3-yl)piperidine-2,6-dione]?
**A.** DC50: < 0.01 nM; Dmax: 89%

**Q.** `C[C@@]12Cc3[nH]nc(C(=O)Nc4cnn(C5CN(CC6CCN(c7ccc(C8CCC(=O)NC8=O)cn7)CC6)C5)c4)c3C[C@@H]1C2(F)F` (stereo partly drawn) [Compound 12, (4aS,5aR)—N-(1-(1-((1-(5-(2,6-dioxopiperidin-3-yl)pyridin-2-yl)piperidin-4-yl)methyl)azetidin-3-yl)-1H-pyrazol-4-yl)-5,5-difluoro-5a-methyl-1,4,4a,5,5a,6-hexahydrocyclopropa[f]indazole-3-carboxamide] was tested. Which DC50 did it give?
**A.** 0.25 nM

**Q.** And the Dmax?
**A.** 85%

**Q.** `CN(C(=O)C1CCN(C(=O)c2ccc3cc(-c4n[nH]c5c4CCC(C)(C)C5)[nH]c3c2)CC1)C1CCN(c2ccc(C3CCC(=O)NC3=O)cn2)CC1` (stereo not drawn) [Compound 33, 1-(2-(6,6-dimethyl-4,5,6,7-tetrahydro-1H-indazol-3-yl)-1H-indole-6-carbonyl)-N-(1-(5-(2,6-dioxopiperidin-3-yl)pyridin-2-yl)piperidin-4-yl)-N-methylpiperidine-4-carboxamide] was tested. Which DC50 did it give?
**A.** 0.04 nM

**Q.** What about the Dmax of the same compound?
**A.** 80%

**Q.** For `CC1(C)CCc2c(-c3cc4ccc(C(=O)N5CCN(CCC#Cc6ccc(C7CCC(=O)NC7=O)cc6)CC5)cc4[nH]3)n[nH]c2C1` (stereo not drawn) [Compound 34, 3-(4-(4-(4-(2-(6,6-dimethyl-4,5,6,7-tetrahydro-1H-indazol-3-yl)-1H-indole-6-carbonyl)piperazin-1-yl)but-1-yn-1-yl)phenyl)piperidine-2,6-dione], which DC50 is on record?
**A.** 2.6 nM

**Q.** What about the Dmax of the same compound?
**A.** 60%

**Q.** For `C[C@@]12Cc3[nH]nc(-c4cc5ccc(N6CCC7(CCN(C(=O)C8CCN(c9ccc(C%10CCC(=O)NC%10=O)cn9)CC8)CC7)C6=O)cc5[nH]4)c3C[C@@H]1C2(F)F` (stereo partly drawn) [Compound 16, 3-(6-(4-(2-(2-((4aS,5aR)-5,5-difluoro-5a-methyl-1,4,4a,5,5a,6-hexahydrocyclopropa[f]indazol-3-yl)-1H-indol-6-yl)-1-oxo-2,8-diazaspiro[4.5]decane-8-carbonyl)piperidin-1-yl)pyridin-3-yl)piperidine-2,6-dione], which Dmax is on record?
**A.** 90%

**Q.** How did the Dmax turn out when `CC1(C)CCc2c(-c3cc4ccc(C(=O)N5CCC(CC6CCN(c7ccc(C8CCC(=O)NC8=O)cn7)CC6)CC5)cc4[nH]3)n[nH]c2C1` (stereo not drawn) [Compound 19, 3-(6-(4-((1-(2-(6,6-dimethyl-4,5,6,7-tetrahydro-1H-indazol-3-yl)-1H-indole-6-carbonyl)piperidin-4-yl)methyl)piperidin-1-yl)pyridin-3-yl)piperidine-2,6-dione] was run?
**A.** 73%

**Q.** Which DC50 does the source give for `C[C@@]12Cc3[nH]nc(-c4cc5ccc(C(=O)N6CCN(CC7CCN(c8ccc(C9CCC(=O)NC9=O)cn8)CC7)CC6)cc5[nH]4)c3C[C@@H]1C2(F)F` (stereo partly drawn) [Compound 20, 3-(6-(4-((4-(2-((4aS,5aR)-5,5-difluoro-5a-methyl-1,4,4a,5,5a,6-hexahydrocyclopropa[f]indazol-3-yl)-1H-indole-6-carbonyl)piperazin-1-yl)methyl)piperidin-1-yl)pyridin-3-yl)piperidine-2,6-dione] here?
**A.** < 0.001 nM

**Q.** What about the Dmax of the same compound?
**A.** 83%

**Q.** For `CN(C(=O)c1ccc2cc(-c3n[nH]c4c3CCC(C)(C)C4)[nH]c2c1)C1CCN(CC2CCN(c3ccc(C4CCC(=O)NC4=O)cn3)CC2)CC1` (stereo not drawn) [Compound 18, 2-(6,6-dimethyl-4,5,6,7-tetrahydro-1H-indazol-3-yl)-N-(1-((1-(5-(2,6-dioxopiperidin-3-yl)pyridin-2-yl)piperidin-4-yl)methyl)piperidin-4-yl)-N-methyl-1H-indole-6-carboxamide], which DC50 is on record?
**A.** 0.68 nM

**Q.** What about the Dmax of the same compound?
**A.** 87%

**Q.** Which results are given for `C[C@@]12Cc3[nH]nc(C(=O)Nc4cnn(C5CN(C(=O)C6CCN(c7ccc(C8CCC(=O)NC8=O)cn7)CC6)C5)c4)c3C[C@@H]1C2(F)F` (stereo partly drawn) [Compound 13, (4aS,5aR)—N-(1-(1-(1-(5-(2,6-dioxopiperidin-3-yl)pyridin-2-yl)piperidine-4-carbonyl)azetidin-3-yl)-1H-pyrazol-4-yl)-5,5-difluoro-5a-methyl-1,4,4a,5,5a,6-hexahydrocyclopropa[f]indazole-3-carboxamide]?
**A.** DC50: 1.3 nM; Dmax: 91%

**Q.** With `CN(C(=O)C1CCN(CC2CCN(c3ccc(C4CCC(=O)NC4=O)cn3)CC2)CC1)c1ccc2cc(-c3n[nH]c4c3C[C@@H]3C(F)(F)[C@]3(C)C4)[nH]c2c1` (stereo partly drawn) [Compound 5, N-(2-((4aS,5aR)-5,5-difluoro-5a-methyl-1,4,4a,5,5a,6-hexahydrocyclopropa[f]indazol-3-yl)-1H-indol-6-yl)-1-((1-(5-(2,6-dioxopiperidin-3-yl)pyridin-2-yl)piperidin-4-yl)methyl)-N-methylpiperidine-4-carboxamide] as the compound, how does the Dmax read?
**A.** 85%

**Q.** `C[C@@]12Cc3[nH]nc(C(=O)Nc4cnn([C@H](c5ccccc5)C5CN(C(=O)C6CN(c7ccc(C8CCC(=O)NC8=O)cn7)C6)C5)c4)c3C[C@@H]1C2(F)F` (stereo partly drawn) [Compound 21, (4aS,5aR)—N-(1-((1S)-(1-(1-(5-(2,6-dioxopiperidin-3-yl)pyridin-2-yl)azetidine-3-carbonyl)azetidin-3-yl)(phenyl)methyl)-1H-pyrazol-4-yl)-5,5-difluoro-5a-methyl-1,4,4a,5,5a,6-hexahydrocyclopropa[f]indazole-3-carboxamide] was tested. Which DC50 did it give?
**A.** < 0.01 nM

**Q.** What about the Dmax of the same compound?
**A.** 83%

**Q.** For `CN(C(=O)CCC1CCN(c2ccc(C3CCC(=O)NC3=O)cn2)C1)c1ccc2cc(-c3n[nH]c4c3C[C@@H]3C(F)(F)[C@]3(C)C4)[nH]c2c1` (stereo partly drawn) [Compound 25, N-(2-((4aS,5aR)-5,5-difluoro-5a-methyl-1,4,4a,5,5a,6-hexahydrocyclopropa[f]indazol-3-yl)-1H-indol-6-yl)-3-(1-(5-(2,6-dioxopiperidin-3-yl)pyridin-2-yl)pyrrolidin-3-yl)-N-methylpropanamide], which Dmax is on record?
**A.** 48%

**Q.** For `CC1(C)CCc2c(-c3cc4ccc(C(=O)N5CCN(CCCCc6ccc(C7CCC(=O)NC7=O)cc6)CC5)cc4[nH]3)n[nH]c2C1` (stereo not drawn) [Compound 40, 3-(4-(4-(4-(2-(6,6-dimethyl-4,5,6,7-tetrahydro-1H-indazol-3-yl)-1H-indole-6-carbonyl)piperazin-1-yl)butyl)phenyl)piperidine-2,6-dione], which DC50 is on record?
**A.** 15 nM

**Q.** What about the Dmax of the same compound?
**A.** 68%
